Test: Contact of acidic solution with human skin
Format: in vivo
Settings: solution with a pH of less than 0.5

In the case of `O=S(=O)(O)O` [sulfuric acid], the “irritation or injury of the hand put into the solution” value is reported as “an irritation would occur”.

Reference: US20050106292A1, “High moisture, shelf-stable acidulated food products” (priority 2003, published 2005)
